Measurements from ChEMBL document CHEMBL5303573, “Mapping human microbiome drug metabolism by gut bacteria and their genes” (Nature, 2019).

Assay: The drug is tested on Clostridium scindens strain: ATCC35704 for biotransformation. The drug concentrations were measured before and after a 12-h incubation by liquid-chromatography-coupled mass spectrometry (LC–MS)
Settings: 2 µM

| Structure (SMILES) | Bacterial Biotransformation |
| --- | --- |
| C[C@@H](c1ncncc1F)[C@](O)(Cn1cncn1)c1ccc(F)cc1F [VORICONAZOLE] | Compound NOT metabolized |
| CC(C)c1nc(CN(C)C(=O)N[C@H](C(=O)N[C@@H](Cc2ccccc2)C[C@H](O)[C@H](Cc2ccccc2)NC(=O)OCc2cncs2)C(C)C)cs1 [RITONAVIR] | Compound NOT metabolized |

Settings: bacteroides thetaiotaomicron, 12 h, 2 µM
Description: The drug is tested on Bacteroides thetaiotaomicron strain: VPI-5482 for biotransformation. The drug concentrations were measured before and after a 12-h incubation by liquid-chromatography-coupled mass spectrometry (LC–MS)

| Structure (SMILES) | Bacterial Biotransformation |
| --- | --- |
| CC(C)c1nc(CN(C)C(=O)N[C@H](C(=O)N[C@@H](Cc2ccccc2)C[C@H](O)[C@H](Cc2ccccc2)NC(=O)OCc2cncs2)C(C)C)cs1 [RITONAVIR] | Compound NOT metabolized |

Assay: The drug is tested on Bacteroides cellulosilyticus strain: DSM14838 for biotransformation. The drug concentrations were measured before and after a 12-h incubation by liquid-chromatography-coupled mass spectrometry (LC–MS)
Settings: 2 µM

| Structure (SMILES) | Bacterial Biotransformation |
| --- | --- |
| CC(C)c1nc(CN(C)C(=O)N[C@H](C(=O)N[C@@H](Cc2ccccc2)C[C@H](O)[C@H](Cc2ccccc2)NC(=O)OCc2cncs2)C(C)C)cs1 [RITONAVIR] | Compound NOT metabolized |

Assay: The drug is tested on Eubacterium rectale strain: ATCC33656 for biotransformation. The drug concentrations were measured before and after a 12-h incubation by liquid-chromatography-coupled mass spectrometry (LC–MS)
Settings: agathobacter rectalis, 2 µM

| Structure (SMILES) | Bacterial Biotransformation |
| --- | --- |
| C[C@@H](c1ncncc1F)[C@](O)(Cn1cncn1)c1ccc(F)cc1F [VORICONAZOLE] | Compound NOT metabolized |

Assay: The drug is tested on Bacteroides ovatus strain: ATCC8483 for biotransformation. The drug concentrations were measured before and after a 12-h incubation by liquid-chromatography-coupled mass spectrometry (LC–MS)
Settings: 2 µM

| Structure (SMILES) | Bacterial Biotransformation |
| --- | --- |
| C[C@@H](c1ncncc1F)[C@](O)(Cn1cncn1)c1ccc(F)cc1F [VORICONAZOLE] | Compound NOT metabolized |
| CC(C)c1nc(CN(C)C(=O)N[C@H](C(=O)N[C@@H](Cc2ccccc2)C[C@H](O)[C@H](Cc2ccccc2)NC(=O)OCc2cncs2)C(C)C)cs1 [RITONAVIR] | Compound NOT metabolized |

Settings: parabacteroides distasonis, 12 h, 2 µM
Description: The drug is tested on Parabacteroides distasonis strain: ATCC8503 for biotransformation. The drug concentrations were measured before and after a 12-h incubation by liquid-chromatography-coupled mass spectrometry (LC–MS)

| Structure (SMILES) | Bacterial Biotransformation |
| --- | --- |
| C[C@@H](c1ncncc1F)[C@](O)(Cn1cncn1)c1ccc(F)cc1F [VORICONAZOLE] | Compound metabolized |
| CC(C)c1nc(CN(C)C(=O)N[C@H](C(=O)N[C@@H](Cc2ccccc2)C[C@H](O)[C@H](Cc2ccccc2)NC(=O)OCc2cncs2)C(C)C)cs1 [RITONAVIR] | Compound NOT metabolized |

Assay: The drug is tested on Clostridium sp. strain: fecal isolate for biotransformation. The drug concentrations were measured before and after a 12-h incubation by liquid-chromatography-coupled mass spectrometry (LC–MS)
Settings: 2 µM

| Structure (SMILES) | Bacterial Biotransformation |
| --- | --- |
| C[C@@H](c1ncncc1F)[C@](O)(Cn1cncn1)c1ccc(F)cc1F [VORICONAZOLE] | Compound NOT metabolized |
| CC(C)c1nc(CN(C)C(=O)N[C@H](C(=O)N[C@@H](Cc2ccccc2)C[C@H](O)[C@H](Cc2ccccc2)NC(=O)OCc2cncs2)C(C)C)cs1 [RITONAVIR] | Compound metabolized |

Assay: The drug is tested on Enterobacter cancerogenus strain: ATCC35316 for biotransformation. The drug concentrations were measured before and after a 12-h incubation by liquid-chromatography-coupled mass spectrometry (LC–MS)
Settings: 2 µM

| Structure (SMILES) | Bacterial Biotransformation |
| --- | --- |
| C[C@@H](c1ncncc1F)[C@](O)(Cn1cncn1)c1ccc(F)cc1F [VORICONAZOLE] | Compound NOT metabolized |

Assay: The drug is tested on Bifidobacterium breve strain: DSM20213 for biotransformation. The drug concentrations were measured before and after a 12-h incubation by liquid-chromatography-coupled mass spectrometry (LC–MS)
Settings: 2 µM

| Structure (SMILES) | Bacterial Biotransformation |
| --- | --- |
| C[C@@H](c1ncncc1F)[C@](O)(Cn1cncn1)c1ccc(F)cc1F [VORICONAZOLE] | Compound NOT metabolized |
| CC(C)c1nc(CN(C)C(=O)N[C@H](C(=O)N[C@@H](Cc2ccccc2)C[C@H](O)[C@H](Cc2ccccc2)NC(=O)OCc2cncs2)C(C)C)cs1 [RITONAVIR] | Compound NOT metabolized |

Settings: bacteroides thetaiotaomicron, 12 h, 2 µM
Remark: another data set of the same source
Description: The drug is tested on Bacteroides thetaiotaomicron strain: 3731 for biotransformation. The drug concentrations were measured before and after a 12-h incubation by liquid-chromatography-coupled mass spectrometry (LC–MS)

| Structure (SMILES) | Bacterial Biotransformation |
| --- | --- |
| CC(C)c1nc(CN(C)C(=O)N[C@H](C(=O)N[C@@H](Cc2ccccc2)C[C@H](O)[C@H](Cc2ccccc2)NC(=O)OCc2cncs2)C(C)C)cs1 [RITONAVIR] | Compound NOT metabolized |

Settings: bacteroides fragilis, 12 h, 2 µM
Description: The drug is tested on Bacteroides fragilis strain: DS-208 for biotransformation. The drug concentrations were measured before and after a 12-h incubation by liquid-chromatography-coupled mass spectrometry (LC–MS)

| Structure (SMILES) | Bacterial Biotransformation |
| --- | --- |
| C[C@@H](c1ncncc1F)[C@](O)(Cn1cncn1)c1ccc(F)cc1F [VORICONAZOLE] | Compound metabolized |
| CC(C)c1nc(CN(C)C(=O)N[C@H](C(=O)N[C@@H](Cc2ccccc2)C[C@H](O)[C@H](Cc2ccccc2)NC(=O)OCc2cncs2)C(C)C)cs1 [RITONAVIR] | Compound metabolized |

Assay: The drug is tested on Blautia luti strain: DSM14534 for biotransformation. The drug concentrations were measured before and after a 12-h incubation by liquid-chromatography-coupled mass spectrometry (LC–MS)
Assay type: ADME
Design: dose 2 uM, timepoint 0 vs 12 hours
Settings: 2 µM

| Structure (SMILES) | Bacterial Biotransformation |
| --- | --- |
| C[C@@H](c1ncncc1F)[C@](O)(Cn1cncn1)c1ccc(F)cc1F [VORICONAZOLE] | Compound NOT metabolized |

Assay: The drug is tested on Bacteroides fragilis strain: ATCC43859 for biotransformation. The drug concentrations were measured before and after a 12-h incubation by liquid-chromatography-coupled mass spectrometry (LC–MS)
Settings: 2 µM

| Structure (SMILES) | Bacterial Biotransformation |
| --- | --- |
| C[C@@H](c1ncncc1F)[C@](O)(Cn1cncn1)c1ccc(F)cc1F [VORICONAZOLE] | Compound metabolized |

Assay: The drug is tested on Subdoligranulum variabile strain: DSM15176 for biotransformation. The drug concentrations were measured before and after a 12-h incubation by liquid-chromatography-coupled mass spectrometry (LC–MS)
Settings: 2 µM

| Structure (SMILES) | Bacterial Biotransformation |
| --- | --- |
| C[C@@H](c1ncncc1F)[C@](O)(Cn1cncn1)c1ccc(F)cc1F [VORICONAZOLE] | Compound NOT metabolized |
| CC(C)c1nc(CN(C)C(=O)N[C@H](C(=O)N[C@@H](Cc2ccccc2)C[C@H](O)[C@H](Cc2ccccc2)NC(=O)OCc2cncs2)C(C)C)cs1 [RITONAVIR] | Compound NOT metabolized |

Assay: The drug is tested on Escherichia coli strain: BW25113 for biotransformation. The drug concentrations were measured before and after a 12-h incubation by liquid-chromatography-coupled mass spectrometry (LC–MS)
Settings: 2 µM

| Structure (SMILES) | Bacterial Biotransformation |
| --- | --- |
| C[C@@H](c1ncncc1F)[C@](O)(Cn1cncn1)c1ccc(F)cc1F [VORICONAZOLE] | Compound NOT metabolized |
| CC(C)c1nc(CN(C)C(=O)N[C@H](C(=O)N[C@@H](Cc2ccccc2)C[C@H](O)[C@H](Cc2ccccc2)NC(=O)OCc2cncs2)C(C)C)cs1 [RITONAVIR] | Compound metabolized |

Assay: The drug is tested on Eubacterium hallii strain: DSM3353 for biotransformation. The drug concentrations were measured before and after a 12-h incubation by liquid-chromatography-coupled mass spectrometry (LC–MS)
Settings: anaerobutyricum hallii, 2 µM

| Structure (SMILES) | Bacterial Biotransformation |
| --- | --- |
| C[C@@H](c1ncncc1F)[C@](O)(Cn1cncn1)c1ccc(F)cc1F [VORICONAZOLE] | Compound NOT metabolized |
| CC(C)c1nc(CN(C)C(=O)N[C@H](C(=O)N[C@@H](Cc2ccccc2)C[C@H](O)[C@H](Cc2ccccc2)NC(=O)OCc2cncs2)C(C)C)cs1 [RITONAVIR] | Compound NOT metabolized |

Assay: The drug is tested on Clostridium symbiosum strain: ATCC14940 for biotransformation. The drug concentrations were measured before and after a 12-h incubation by liquid-chromatography-coupled mass spectrometry (LC–MS)
Settings: 2 µM

| Structure (SMILES) | Bacterial Biotransformation |
| --- | --- |
| C[C@@H](c1ncncc1F)[C@](O)(Cn1cncn1)c1ccc(F)cc1F [VORICONAZOLE] | Compound NOT metabolized |
| CC(C)c1nc(CN(C)C(=O)N[C@H](C(=O)N[C@@H](Cc2ccccc2)C[C@H](O)[C@H](Cc2ccccc2)NC(=O)OCc2cncs2)C(C)C)cs1 [RITONAVIR] | Compound NOT metabolized |

Assay: The drug is tested on Bacteroides finegoldii strain: DSM17565 for biotransformation. The drug concentrations were measured before and after a 12-h incubation by liquid-chromatography-coupled mass spectrometry (LC–MS)
Settings: 2 µM

| Structure (SMILES) | Bacterial Biotransformation |
| --- | --- |
| C[C@@H](c1ncncc1F)[C@](O)(Cn1cncn1)c1ccc(F)cc1F [VORICONAZOLE] | Compound NOT metabolized |
| CC(C)c1nc(CN(C)C(=O)N[C@H](C(=O)N[C@@H](Cc2ccccc2)C[C@H](O)[C@H](Cc2ccccc2)NC(=O)OCc2cncs2)C(C)C)cs1 [RITONAVIR] | Compound NOT metabolized |

Settings: bacteroides fragilis, 12 h, 2 µM
Remark: another data set of the same source
Description: The drug is tested on Bacteroides fragilis strain: NCTC 9343 for biotransformation. The drug concentrations were measured before and after a 12-h incubation by liquid-chromatography-coupled mass spectrometry (LC–MS)

| Structure (SMILES) | Bacterial Biotransformation |
| --- | --- |
| C[C@@H](c1ncncc1F)[C@](O)(Cn1cncn1)c1ccc(F)cc1F [VORICONAZOLE] | Compound NOT metabolized |
| CC(C)c1nc(CN(C)C(=O)N[C@H](C(=O)N[C@@H](Cc2ccccc2)C[C@H](O)[C@H](Cc2ccccc2)NC(=O)OCc2cncs2)C(C)C)cs1 [RITONAVIR] | Compound metabolized |

Assay: The drug is tested on Bacteroides caccae strain: ATCC43185 for biotransformation. The drug concentrations were measured before and after a 12-h incubation by liquid-chromatography-coupled mass spectrometry (LC–MS)
Settings: 2 µM

| Structure (SMILES) | Bacterial Biotransformation |
| --- | --- |
| C[C@@H](c1ncncc1F)[C@](O)(Cn1cncn1)c1ccc(F)cc1F [VORICONAZOLE] | Compound NOT metabolized |
| CC(C)c1nc(CN(C)C(=O)N[C@H](C(=O)N[C@@H](Cc2ccccc2)C[C@H](O)[C@H](Cc2ccccc2)NC(=O)OCc2cncs2)C(C)C)cs1 [RITONAVIR] | Compound NOT metabolized |
